# According to patent publication US20090088380A1, “GHRH ANALOGS AND THERAPEUTIC USES THEREOF” (priority 2007, published 2009):
# Where “and” joins values, the source holds several entries; their conditions need not be identical. Equal values may be shown once. Non-standard residues stand in square brackets, D forms with d. Residues, ends and D or L forms follow the SMILES beside them.
# Key:
# [1] = tested on: malnourished subjects with CKD; assay: Phase II CKD: abnormal and clinically significant haematology values; format: in vivo, human; settings: for Subjects with abnormal and clinically significant Basophils (%) / Subjects with abnormal and clinically significant Eosinophils (%) / Subjects with abnormal and clinically significant Haematocrit (%) / Subjects with abnormal and clinically significant Haemoglobin (%) / Subjects with abnormal and clinically significant Lymphocytes (%) / Subjects with abnormal and clinically significant MCV (%) / Subjects with abnormal and clinically significant Monocytes (%) / Subjects with abnormal and clinically significant Neutrophils (%) / Subjects with abnormal and clinically significant Platelet count (%) / Subjects with abnormal and clinically significant RBC (%) / Subjects with abnormal and clinically significant WBC (%): safety analysis set
# Source text: The number of subjects with abnormal and clinically significant laboratory values at baseline and at Day 28 is presented in Table 35 (haematology) and Table 36 clinical chemistry. Overall, the number of subjects with abnormal and clinically significant laboratory values was similar in the GHRH(1-29)NH2 synthetic analog and placebo groups. No clear trends were observed.
# [2] = tested on: antibodies to the GHRH(1-29)NH2 synthetic analog; assay: Phase I/II study: human anti-GHRH antibodies ELISA; format: in vivo; settings: Day 30 sample, at the dilution tested
# Description: On Day 30, an ambulatory control visit took place. Clinical assessments were performed and adverse events were reported. A blood sample was taken to determine the presence of antibodies the GHRH(1-29)NH2 synthetic analog.
# Once the volunteers were considered eligible, they were hospitalized for a period of 5 consecutive days. On Day 0 of admission successive samples of blood were taken to perform the basal secretion profile of GH during 24 hours. During 5-day hospitalization period, after the initial blood sampling to determine fasting glucose level, the appropriate dose of the GHRH(1-29)NH2 synthetic analog or placebo was administered and multiple samplings were performed to assess the profile of GH, postprandial glucose level and electrocardiogram after 60 minutes of the application of the GHRH(1-29)NH2 synthetic analog/placebo. Eight hours after drug administration, samples were obtained to determine IGF-1 level, thyroid hormones and routine analysis. After 30 days of admission, all the volunteers returned for new clinical evaluation to record any adverse events that could have occurred from the last day of hospitalization period and to take a blood sample for later determination of anti-GHRH(1-29)NH2 synthetic analog antibodies.
# Human anti-GHRH antibodies were measured in ELISA developed LAB Pre-Clinical Research Intl.
# endogenous GH secretion = assay: Phase II CKD: 24-hour GH profile and deconvolution; format: in vivo, human
# Description: Blood samples for assessment of GH secretion had to be taken over 24 hours because the release of endogenous GH was pulsatile and not consistent throughout the day. Much of endogenous GH release is closely coupled to periods of slow-wave sleep, and the bulk of GH secretion usually occurs between midnight and 4 am. […] To document clearly the effect of the GHRH(1-29)NH2 synthetic analog on endogenous GH secretion, the following protocol had been designed: first, baseline endogenous GH secretion was assessed on Day 0 by sampling blood every 20 minutes for 20 hours and every 10 minutes for 4 hours. At the end of this sampling period (in the afternoon of Day 1), the first injection of the GHRH(1-29)NH2 synthetic analog was given. At the end of the 4-week treatment period (Day 28), GH secretion was reassessed by another 24-hour secretion profile. This profile started at 8:30 am with the morning injection of the GHRH(1-29)NH2 synthetic analog. Blood was collected every 10 minutes for the first 4 hours, followed by sampling every 20 minutes for the next 20 hours; this period included the afternoon injection of the GHRH(1-29)NH2 synthetic analog. In this way, it was possible to assess the evolution of both the pituitary's immediate GHRH response and that of time-integrated 24-hour GH secretion over extended treatment.
# On Day 0 (baseline) and Day 28, subjects commenced 24-hour sampling at 10 and 20-minute intervals to construct a GH profile. […] The cannula was flushed with heparin-saline solution after each blood withdrawal to prevent clotting. Immediately before each blood collection, the residual heparin-saline volume instilled in the cannula was withdrawn with 0.5 mL blood in a separate syringe. This volume was reinjected after collection of the sample used for GH analysis.
# At the baseline visit, blood sampling for the 24-hour GH profile commenced on Day 0 by taking samples at 20-minute intervals for 20 hours. Immediately at the end of this period, on the morning of Day 1, samples were taken at 10-minute intervals for 4 hours. The first dose of investigational product was not given before the end of the 24-hour GH profile period. On Day 28, samples were taken pre-dose, at 10-minute intervals for the first 4 hours (at the same time of day as the 4-hour period on Day 1) and at 20-minute intervals thereafter for a further 20 hours.
# Samples were analysed for GH at the Department of Nephrology, Endocrinology and Metabolic Diseases, Silesian University School of Medicine, Katowice, Poland using a commercial kit.
# [3] = GH deconvolution, ITT, Baseline
# [4] = GH deconvolution, ITT, Day 28, vs placebo
structure (smiles),measurement,setting,value
"CC[C@H](C)[C@H](NC(=O)[C@H](C)NC(=O)[C@H](CC(=O)O)NC(=O)[C@@H](C)NC(=O)[C@@H](N)Cc1ccc(O)cc1)C(=O)N[C@@H](Cc1ccccc1)C(=O)N[C@H](C(=O)N[C@@H](CC(N)=O)C(=O)N[C@@H](CO)C(=O)N[C@H](Cc1ccc(O)cc1)C(=O)N[C@@H](CCCNC(=N)N)C(=O)N[C@@H](CCCCN)C(=O)N[C@H](C(=O)N[C@@H](CC(C)C)C(=O)N[C@H](C)C(=O)N[C@@H](CCC(N)=O)C(=O)N[C@@H](CC(C)C)C(=O)N[C@@H](CO)C(=O)N[C@@H](C)C(=O)N[C@@H](CCCNC(=N)N)C(=O)N[C@@H](CCCCN)C(=O)N[C@@H](CCCCN)C(=O)N[C@@H](CC(C)C)C(=O)N[C@@H](CCC(N)=O)C(=O)N[C@@H](CC(=O)O)C(=O)N[C@H](C(=O)N[C@@H](CCSC)C(=O)N[C@@H](CO)C(=O)N[C@@H](CCCNC(=N)N)C(N)=O)[C@@H](C)CC)C(C)C)[C@@H](C)O [GHRH analog #5, [D-Ala^2, D-Tyr^10, D-Ala^15, Lys^22] hGHRH(1-29)-NH2] (H-Y[dA]DAIFTNS[dY]RKVL[dA]QLSARKKLQDIMSR-NH2)",Subjects with abnormal and clinically significant Basophils (%),[1]; Baseline,(0.0%)
same,Subjects with abnormal and clinically significant Eosinophils (%),[1]; Baseline,(0.0%)
same,Subjects with abnormal and clinically significant Haematocrit (%),[1]; Baseline,(7.7%)
same,Subjects with abnormal and clinically significant Haemoglobin (%),[1]; Baseline,(23.1%)
same,Subjects with abnormal and clinically significant Lymphocytes (%),[1]; Baseline,(0.0%)
same,Subjects with abnormal and clinically significant MCV (%),[1]; Baseline,(0.0%)
same,Subjects with abnormal and clinically significant Monocytes (%),[1]; Baseline,(7.7%)
same,Subjects with abnormal and clinically significant Neutrophils (%),[1]; Baseline,(7.7%)
same,Subjects with abnormal and clinically significant Platelet count (%),[1]; Baseline,(0.0%)
same,Subjects with abnormal and clinically significant RBC (%),[1]; Baseline,(7.7%)
same,Subjects with abnormal and clinically significant WBC (%),[1]; Baseline,(0.0%)
same,Number of subjects with abnormal and clinically significant haematocrit,[1]; Day 28,4 subjects
same,Subjects with abnormal and clinically significant Basophils (%),[1]; Day 28,(0.0%)
same,Subjects with abnormal and clinically significant Eosinophils (%),[1]; Day 28,(0.0%)
same,Subjects with abnormal and clinically significant Haematocrit (%),[1]; Day 28,(33.3%)
same,Subjects with abnormal and clinically significant Haemoglobin (%),[1]; Day 28,(41.7%)
same,Subjects with abnormal and clinically significant Lymphocytes (%),[1]; Day 28,(0.0%)
same,Subjects with abnormal and clinically significant MCV (%),[1]; Day 28,(0.0%)
same,Subjects with abnormal and clinically significant Monocytes (%),[1]; Day 28,(8.3%)
same,Subjects with abnormal and clinically significant Neutrophils (%),[1]; Day 28,(16.7%)
same,Subjects with abnormal and clinically significant Platelet count (%),[1]; Day 28,(0.0%)
same,Subjects with abnormal and clinically significant RBC (%),[1]; Day 28,(25.0%)
same,Subjects with abnormal and clinically significant WBC (%),[1]; Day 28,(0.0%)
same,Number of subjects with abnormal and clinically significant haematocrit,[1]; baseline,1 subject
same,Detectable antibodies to the GHRH(1-29)NH2 synthetic analog,[2],None of the subject samples tested had detectable antibodies
same,1st component half-life: median,endogenous GH secretion; [3],6 min
same,2nd component half-life: median,endogenous GH secretion; [3],16 min
same,% pulsatile secretion rate: mean (SD),endogenous GH secretion; [3],79.02 (9.09) %
same,Basal secretion rate: median,endogenous GH secretion; [3],27 mU/L/24 h
same,Inter-pulse regularity: mean (SD),endogenous GH secretion; [3],2.35 (0.63)
same,Mass per pulse: mean (SD),endogenous GH secretion; [3],11.30 (7.02) mU/L
same,Mean pulse frequency (per 24 h): mean (SD),endogenous GH secretion; [3],8.09 (2.81) per 24 h
same,Number of pulses: mean (SD),endogenous GH secretion; [3],8.8 (3.2)
same,Pulsatile secretion rate: median,endogenous GH secretion; [3],100 mU/L/24 h
same,Time from onset to peak of burst: mean (SD),endogenous GH secretion; [3],32.8 (3.9) min
same,Total secretion rate: median,endogenous GH secretion; [3],120 mU/L/24 h
same,1st component half-life: median,"endogenous GH secretion; GH deconvolution, ITT, Day 28",2 min
same,2nd component half-life: comparison vs placebo,"endogenous GH secretion; GH deconvolution, ITT, Day 28",4.8
same,2nd component half-life: median,"endogenous GH secretion; GH deconvolution, ITT, Day 28",26 min
same,% pulsatile secretion rate: comparison vs placebo,"endogenous GH secretion; GH deconvolution, ITT, Day 28",−0.4
same,% pulsatile secretion rate: mean (SD),"endogenous GH secretion; GH deconvolution, ITT, Day 28",71.27 (16.24) %
same,Basal secretion rate: median,"endogenous GH secretion; GH deconvolution, ITT, Day 28",98 mU/L/24 h
same,Inter-pulse regularity: comparison vs placebo,"endogenous GH secretion; GH deconvolution, ITT, Day 28",−0.0
same,Inter-pulse regularity: mean (SD),"endogenous GH secretion; GH deconvolution, ITT, Day 28",1.95 (0.30)
same,Mass per pulse: comparison vs placebo,"endogenous GH secretion; GH deconvolution, ITT, Day 28",26.5
same,Mass per pulse: mean (SD),"endogenous GH secretion; GH deconvolution, ITT, Day 28",43.88 (36.16) mU/L
same,Mean pulse frequency (per 24 h): mean (SD),"endogenous GH secretion; GH deconvolution, ITT, Day 28",9.07 (3.49) per 24 h
same,Mean pulse frequency: comparison vs placebo,"endogenous GH secretion; GH deconvolution, ITT, Day 28",0.8
same,Number of pulses: comparison vs placebo,"endogenous GH secretion; GH deconvolution, ITT, Day 28",0.3
same,Number of pulses: mean (SD),"endogenous GH secretion; GH deconvolution, ITT, Day 28",9.7 (3.7)
same,Pulsatile secretion rate: median,"endogenous GH secretion; GH deconvolution, ITT, Day 28",378 mU/L/24 h
same,Time from onset to peak of burst: comparison vs placebo,"endogenous GH secretion; GH deconvolution, ITT, Day 28",−4.5
same,Time from onset to peak of burst: mean (SD),"endogenous GH secretion; GH deconvolution, ITT, Day 28",27.3 (4.7) min
same,Total secretion rate: median,"endogenous GH secretion; GH deconvolution, ITT, Day 28",495 mU/L/24 h
same,Basal secretion rate: comparison or ratio of means,endogenous GH secretion; [4],2.53
same,Pulsatile secretion rate: comparison or ratio of means,endogenous GH secretion; [4],2.81
same,Total secretion rate: comparison or ratio of means,endogenous GH secretion; [4],2.72
same,GH AUC first 4 hours: increase from baseline to day 28,endogenous GH secretion; ITT,1137%
same,GH AUC at 4 h: median,"endogenous GH secretion; ITT, Baseline",315 μIU/mL × min
same,GH AUC at 24 h: median,"endogenous GH secretion; ITT, Baseline",3473 μIU/mL × min
same,GH SD at 4 h: median,"endogenous GH secretion; ITT, Baseline",1.0 μIU/mL
same,GH SD at 24 h: median,"endogenous GH secretion; ITT, Baseline",2.9 μIU/mL
same,GH concentration at 4 h: median,"endogenous GH secretion; ITT, Baseline",1.3 μIU/mL
same,GH concentration at 24 h: median,"endogenous GH secretion; ITT, Baseline",2.1 μIU/mL
same,Mean concentration of GH secreted during the first 4 hours,"endogenous GH secretion; ITT, Baseline",1.72 μIU/ml
same,GH AUC at 4 h: median,"endogenous GH secretion; ITT, Day 28",3891 μIU/mL × min
same,GH AUC at 24 h: difference vs placebo,"endogenous GH secretion; ITT, Day 28",11585 μIU/mL × min
same,GH AUC at 24 h: median,"endogenous GH secretion; ITT, Day 28",16753 μIU/mL × min
same,GH SD at 4 h: median,"endogenous GH secretion; ITT, Day 28",11.6 μIU/mL
same,GH SD at 24 h: median,"endogenous GH secretion; ITT, Day 28",13.3 μIU/mL
same,GH concentration at 4 h: median,"endogenous GH secretion; ITT, Day 28",16.2 μIU/mL
same,GH concentration at 24 h: comparison vs placebo,"endogenous GH secretion; ITT, Day 28",9.5
same,GH concentration at 24 h: median,"endogenous GH secretion; ITT, Day 28",12.5 μIU/mL
same,GH AUC at 4 h: ratio,"endogenous GH secretion; ITT, Day 28, vs placebo",9.5 and 9.49
same,GH SD at 4 h: comparison or ratio of means,"endogenous GH secretion; ITT, Day 28, vs placebo",6.97
same,GH SD at 24 h: comparison or ratio of means,"endogenous GH secretion; ITT, Day 28, vs placebo",3.92
same,GH concentration at 4 h: ratio,"endogenous GH secretion; ITT, Day 28, vs placebo",9.50
same,Mean GH concentration first 4 hours: increase,"endogenous GH secretion; ITT, baseline to day 28",1136%
same,Mean concentration of GH secreted during the first 4 hours,"endogenous GH secretion; ITT, day 28",21.26 μIU/ml
same,Mean amount of GH secreted in 24 hours (AUC),endogenous GH secretion; baseline,3770.62 μIU/ml×min
same,Mean basal GH secretion rate,endogenous GH secretion; baseline,26.9 mU/L/24 h
same,Mean concentration of GH,endogenous GH secretion; baseline,2.49 μIU/ml
same,Mean 24-hour GH AUC: increase,endogenous GH secretion; baseline to day 28,393%
same,Mean amount of GH secreted in 24 hours (AUC),endogenous GH secretion; day 28,18579.9 μIU/ml×min
